Results as given in the RepoRT retention time repository (doi:10.1016/j.chroma.2014.05.003).

Assay: RP, Agilent ZORBAX Eclipse Plus C18, 50 × 4.6 mm, 1.8 µm, 0.5 mL/min, estimated dead time 1.1 min; A: water + 0.1% formic acid; B: acetonitrile + 0.1% formic acid; gradient (min/%B) 0/10 3/10 25/100 28/100
Conditions: stereoisomer not certain

| SMILES | LC retention time [min] |
| --- | --- |
| CCC1OC(=O)C(C)C(OC2CC(C)(OC)C(O)C(C)O2)C(C)C(OC2OC(C)CC(N(C)C)C2O)C(C)(O)CC(C)C(=O)C(C)C(O)C1(C)O (stereo unspecified) | 9.73 |
| COP(=S)(OC)Oc1ccc([N+](=O)[O-])c(C)c1 | 17.2 |
| COC(=O)NN=Cc1c[n+]([O-])c2ccccc2[n+]1[O-] | 6.32 |
| COP(=O)(OC)OC(C)=CC(=O)N(C)C | 6.41 |
| CNC(=O)CSP(=S)(OC)OC | 9 |
| CCC1OC(=O)C(C)C(OC2CC(C)(OC)C(O)C(C)O2)C(C)C(OC2OC(C)CC(N(C)C)C2O)C(C)(OC)CC(C)C(=O)C(C)C(O)C1(C)O (stereo unspecified) | 11.1 |
| CC1c2cccc(O)c2C(O)=C2C(=O)C3(O)C(O)=C(C(N)=O)C(=O)C(N(C)C)C3C(O)C21 (stereo unspecified) | 8.75 |
| Cc1c(N)c(=O)n(-c2ccccc2)n1C | 2.39 |
| CN(C(=O)COc1nc2ccccc2s1)c1ccccc1 | 16 |
| CNC(=O)C=C(C)OP(=O)(OC)OC | 5.55 |
| COC1C(O)CC(=O)OC(C)CC=CC=CC(OC2CCC(N(C)C)C(C)O2)C(C)CC(CC=O)C1OC1OC(C)C(OC2CC(C)(O)C(O)C(C)O2)C(N(C)C)C1O (stereo unspecified) | 7.59 |
| Cc1cc(C)c(C2=C(OC(=O)CC(C)(C)C)C3(CCCC3)OC2=O)c(C)c1 | 23.1 |
| CCNc1nc(NC(C)C(C)C)nc(SC)n1 (stereo unspecified) | 13.1 |
| CNc1nc(NC(C)C)nc(SC)n1 | 8.8 |
| Nc1ccc(S(N)(=O)=O)cc1 | 1.82 |
| CC(C)(c1ccc(O)cc1)c1ccc(O)cc1 | 13.1 |
| CCOP(=S)(OCC)Oc1cnc2ccccc2n1 | 18.2 |
| CCCCC(CC)COC(=O)c1ccccc1C(=O)OCC(CC)CCCC (stereo unspecified) | 27.5 |
| NC(N)=Nc1nc(CSCCC(N)=NS(N)(=O)=O)cs1 | 1.81 |
| CC(C)c1cc(Oc2ccccc2)cc(C(C)C)c1NC(=S)NC(C)(C)C | 22.3 |
| CCOC(=O)NCCOc1ccc(Oc2ccccc2)cc1 | 17 |
| COc1ccc(-c2ccccc2)cc1NNC(=O)OC(C)C | 16.6 |

| SMILES | LC retention time [min] |
| --- | --- |
| Cc1ccc(NS(=O)(=O)N(C)C)cc1 | 12.9 |
| COCC(=O)N(c1c(C)cccc1C)C(C)C(=O)OC (stereo unspecified) | 12.9 |
| COC(=O)Nc1nc2ccc(S(=O)c3ccccc3)cc2[nH]1 (stereo unspecified) | 8.64 |
| O=NN1CCCCC1 | 6.57 |
| COC(=O)NS(=O)(=O)c1ccc(N)cc1 | 5.43 |
| COCCOc1ccccc1S(=O)(=O)NC(=O)Nc1nc(OC)nc(OC)n1 | 11.9 |
| Nc1ccc(-c2ccc(N)cc2)cc1 | 1.36 |
| CC(C)c1ccc(NC(=O)N(C)C)cc1 | 12.9 |
| COCc1cnc(C2=NC(C)(C(C)C)C(=O)N2)c(C(=O)O)c1 (stereo unspecified) | 8.04 |
| CCOC(=O)C1CC(=O)C(=C(O)C2CC2)C(=O)C1 (stereo unspecified) | 14.2 |
| CN(C)CCOC(c1ccccc1)c1ccccc1 | 9.81 |
| COc1ccc2c3c1OC1C(O)C=CC4C(C2)N(C)CCC341 (stereo unspecified) | 3.16 |
| c1ccc2[nH]c(-c3cscn3)nc2c1 | 4.54 |
| CCN(CC)c1nc(C)cc(OP(=S)(OC)OC)n1 | 19 |
| CN1C(=O)CCC1c1cccnc1 (stereo unspecified) | 1.35 |
| CCOP(=O)(Sc1ccccc1)Sc1ccccc1 | 17.6 |
| O=NN1CCCC1 | 2.66 |
| CCSCc1ccccc1OC(=O)NC | 13.1 |
| c1ccc(Nc2ccccc2)cc1 | 17.2 |
| CN(C)C1CSSSC1 | 2.02 |
| Cc1ccc(C)c(OCCCC(C)(C)C(=O)O)c1 | 18.1 |
| CNC(C)C(O)c1ccccc1 (stereo unspecified) | 2.78 |

| SMILES | LC retention time [min] |
| --- | --- |
| O=C(NN=Cc1ccc([N+](=O)[O-])o1)c1ccc(O)cc1 | 9.51 |
| CCOP(=S)(OCC)Oc1cc(C)nc(C(C)C)n1 | 18.8 |
| CCC1CCCC(OC2CCC(N(C)C)C(C)O2)C(C)C(=O)C2=CC3C(C=CC4CC(OC5OC(C)C(OC)C(OC)C5OC)CC43)C2CC(=O)O1 (stereo unspecified) | 14.9 |
| CSC(C)=NOC(=O)N(C)SN(C)C(=O)ON=C(C)SC | 11.8 |
| CCOP(=O)(SC(C)CC)N1CCSC1=O (stereo unspecified) | 12.7 |
| COC(=O)Nc1nc2ccccc2[nH]1 | 3.27 |
| NC(=O)N1c2ccccc2C=Cc2ccccc21 | 11.2 |
| CNC(=O)ON=C(C)C(C)S(C)(=O)=O (stereo unspecified) | 4.36 |
| CNC(=O)ON=CC(C)(C)S(C)(=O)=O | 4.81 |
| CCOC(=O)CC(SP(=S)(OC)OC)C(=O)OCC (stereo unspecified) | 17 |
| CC1(C)SC2C(NC(=O)C(N)c3ccccc3)C(=O)N2C1C(=O)O (stereo unspecified) | 7.93 |
| CCOC(=O)N(C)C(=O)CSP(=S)(OCC)OCC | 17.8 |
| CC12CCC3C(CCC4=CC(=O)CCC43C)C1CCC2=O (stereo unspecified) | 14.8 |
| CNC(=O)Oc1cc(C)c(SC)c(C)c1 | 15 |
| CCOC(=O)C(CCc1ccccc1)NC(C)C(=O)N1CCCC1C(=O)O (stereo unspecified) | 9.21 |
| CC12CCC(O)CC1CCC1C2CC(O)C2(C)C(C3=CC(=O)OC3)CCC12O (stereo unspecified) | 8.14 |
| COc1nn(CSP(=S)(OC)OC)c(=O)s1 | 15.3 |
| COP(=S)(OC)Oc1ccc(S(=O)(=O)N(C)C)cc1 | 15.3 |
| CN(C)C1C(=O)C(C(N)=O)=C(O)C2(O)C(=O)C3=C(O)c4c(O)cccc4C(C)(O)C3C(O)C12 (stereo unspecified) | 6.11 |
| COP(=S)(OC)Oc1ccc(SC)c(C)c1 | 18.5 |
| COP(=S)(OC)SCn1nnc2ccccc2c1=O | 15.4 |
| CCN(CC)C(=O)c1cccc(C)c1 | 12.8 |

| SMILES | LC retention time [min] |
| --- | --- |
| CC(C)(C)c1ccc(CCOc2ncnc3ccccc23)cc1 | 22 |
| CNC(=O)ON=C(C)C(C)SC (stereo unspecified) | 9.65 |
| CCOc1ccc2c3c1OC1C(O)C=CC4C(C2)N(C)CCC341 (stereo unspecified) | 5.83 |
| COc1cc(Cc2cnc(N)nc2N)cc(OC)c1OC | 5.6 |
| CCCCN(CCCC)N=O | 15.9 |
| CNC(=O)ON=C(C)SC | 5.39 |
| O=NN1CCOCC1 | 2.21 |
| CCNc1nc(NC(C)(C)C)nc(SC)n1 | 18.3 |
| CC(C)C1(C)N=C(c2nc3ccccc3cc2C(=O)O)NC1=O (stereo unspecified) | 11 |
| CNC(=O)CSP(=O)(OC)OC | 2.22 |
| O=c1oc2ccccc2c(O)c1C1CC(c2ccc(-c3ccccc3)cc2)Cc2ccccc21 (stereo unspecified) | 21.7 |
| CCOP(=S)(OCC)SCSP(=S)(OCC)OCC | 21.7 |
| CCCOC(=O)NCCCN(C)C | 2.3 |
| CC(C)NCC(O)COc1ccc(CC(N)=O)cc1 (stereo unspecified) | 1.76 |
| Cc1c(C(C)C)c(=O)n(-c2ccccc2)n1C | 11.9 |
| Nc1nc(N)nc(NC2CC2)n1 | 1.36 |
| Cc1cc(C2CC2)nc(Nc2ccccc2)n1 | 14.3 |
| Cc1nc(N(C)C)nc(OC(=O)N(C)C)c1C | 6.86 |
| CC12CCC3c4ccc(O)cc4CCC3C1CCC2=O (stereo unspecified) | 14.6 |
| CN(C)c1ccc(C(c2ccccc2)c2ccc(N(C)C)cc2)cc1 | 12.6 |
